Measurements: EP2845588A1, “PIN1 inhibitors for use in the prevention and/or treatment of theileriosis, and related applications” (Centre National de la Recherche Scientifique (CNRS), priority 2013, dated 2015)

Key:
[1] = test system: Theileria parasites in TBL3-infected cells; test: Parasites quantification by DAPI staining in infected cells; type: cell-based, T.annulata; conditions: 72h, Buparvaquone 200ng/ml, Juglone 5 µM, PiB 1 µM
Experimental: All infected bovine cell lines used in this study were previously described: TBL3 cells were derived from in vitro infection of the spontaneous bovine-B lymphosarcoma cell line, BL3, with Hissar stock of T.annulata. The TpMD409 lymphocyte cell line are infected with T. parva. The culture conditions of these cell lines were previously described by Moreau et al., 1999. Cells were cultured in RPMI 1640 (Gibco-BRL, Paisley, UK), supplemented with 10% heat-inactivated Fetal calf serum, 4mM L-Glutamine, 25mM HEPES, 10µM β-mercaptoethanol and 100µg/ml penicillin/streptomycin in a humidified 5%CO2 atmosphere at 37°C. HepG2, NIH/3T3 and MEF cells lines were cultured in DMEM (Gibco-BRL, Paisley, UK), supplemented with 10% heat-inactivated Fetal calf serum, 4mM L-Glutamine, 25 mM HEPES, 10µM β-mercaptoethanol and 100µg/ml penicillin/streptomycin in a humidified 5% CO2 atmosphere at 37°C. Cell numbers, as judged by Trypan Blue exclusion test, were determined by counting cells using a Countess automated cell counter (Invitrogen, CA, USA). The anti-parasite drug Buparvaquone (BW720c) was used at 200ng/ml for 72 hours. BW720c has no effect on growth of uninfected cells. […] Images of immunofluoresence staining were photographed with a fluorescent microscope (Leica Inverted 6000) and the number of parasites per cells was counted. […]

[2] = test system: parasite-infected cells (Theileria annulata - TBL3); test: Cell viability XTT assay, TBL3; type: cell-based, bovine
Experimental: (§1) All infected bovine cell lines used in this study were previously described: TBL3 cells were derived from in vitro infection of the spontaneous bovine-B lymphosarcoma cell line, BL3, with Hissar stock of T.annulata. The TpMD409 lymphocyte cell line are infected with T. parva. The culture conditions of these cell lines were previously described by Moreau et al., 1999. Cells were cultured in RPMI 1640 (Gibco-BRL, Paisley, UK), supplemented with 10% heat-inactivated Fetal calf serum, 4mM L-Glutamine, 25mM HEPES, 10µM β-mercaptoethanol and 100µg/ml penicillin/streptomycin in a humidified 5%CO2 atmosphere at 37°C. HepG2, NIH/3T3 and MEF cells lines were cultured in DMEM (Gibco-BRL, Paisley, UK), supplemented with 10% heat-inactivated Fetal calf serum, 4mM L-Glutamine, 25 mM HEPES, 10µM β-mercaptoethanol and 100µg/ml penicillin/streptomycin in a humidified 5% CO2 atmosphere at 37°C. Cell numbers, as judged by Trypan Blue exclusion test, were determined by counting cells using a Countess automated cell counter (Invitrogen, CA, USA). The anti-parasite drug Buparvaquone (BW720c) was used at 200ng/ml for 72 hours. BW720c has no effect on growth of uninfected cells. […]

[3] = test system: Parasite-infected TBL3 cells; test: Soft agar colony forming assay, TBL3; type: cell-based, bovine; conditions: colonies counted 10 days after plating
Experimental: as §1, with “HepG2, NIH/3T3 and MEF cells lines were cultured in DMEM (Gibco-BRL, Paisley, UK), supplemented with 10% heat-inactivated Fetal calf serum, 4mM L-Glutamine, 25 mM HEPES, 10µM β-mercaptoethanol and 100µg/ml penicillin/streptomycin in a humidified 5% CO2 atmosphere at 37°C.” left out, “USA).” for “USA). The anti-parasite drug Buparvaquone (BW720c) was used at 200ng/ml for 72 hours. BW720c has no effect on growth of uninfected cells.”
(§2) A two-layer soft agar culture system was used. […] Cultures were incubated in humidified 37°C incubators with an atmosphere of 5%CO2 in air, and control plates were monitored for growth using a microscope. At the time of maximum colony formation (10 days in culture), final colony numbers were counted manually after fixation a staining with 0.005% Crystal Violet (Sigma, Ref.: C3886).

[4] = test system: transcripts encoding glycolytic enzymes; test: Expression of transcripts encoding glycolytic enzymes in Theileria-infected cells; type: cell-based, bovine
Experimental: (§3) Total cellular RNAs were extracted using an RNeasy Plus Mini Kit (Qiagen, Hilden, Germany) and parasite RNAs were extracted using the classical Trizol Protocol. cDNA synthesis was performed with the Reverse Transcriptase Superscript III (Invitrogen, CA, USA).
(§4) Quantitative PCR amplification was performed in the ABI 7500 machine (Applied Biosystems, CA, USA) using the Sybr Green reagent (Applied Biosystems, CA, USA) using the primers listed in Table 5 below. The detection of a single product was verified by dissociation curve analysis. Relative quantities of mRNA were analyzed using the delta Ct method. The βactin qPCR was used for normalization. Table 5: qPCR primers

[5] = test system: non-parasitized BL3 cells; test: Cell proliferation, live cell count after trypan blue exclusion, BL3; type: cell-based, bovine; conditions: BL3 / uninfected cells
Experimental: All infected bovine cell lines used in this study were previously described: TBL3 cells were derived from in vitro infection of the spontaneous bovine-B lymphosarcoma cell line, BL3, with Hissar stock of T.annulata. The TpMD409 lymphocyte cell line are infected with T. parva. The culture conditions of these cell lines were previously described by Moreau et al., 1999. Cells were cultured in RPMI 1640 (Gibco-BRL, Paisley, UK), supplemented with 10% heat-inactivated Fetal calf serum, 4mM L-Glutamine, 25mM HEPES, 10µM β-mercaptoethanol and 100µg/ml penicillin/streptomycin in a humidified 5%CO2 atmosphere at 37°C. HepG2, NIH/3T3 and MEF cells lines were cultured in DMEM (Gibco-BRL, Paisley, UK), supplemented with 10% heat-inactivated Fetal calf serum, 4mM L-Glutamine, 25 mM HEPES, 10µM β-mercaptoethanol and 100µg/ml penicillin/streptomycin in a humidified 5% CO2 atmosphere at 37°C. Cell numbers, as judged by Trypan Blue exclusion test, were determined by counting cells using a Countess automated cell counter (Invitrogen, CA, USA). The anti-parasite drug Buparvaquone (BW720c) was used at 200ng/ml for 72 hours. BW720c has no effect on growth of uninfected cells.
Cells were treated with either Juglone at 5 µM resuspended in Ethanol (Sigma, St Louis, MO, Ref.: H47003), or PiB at 1 µM resuspended in DMSO (Sigma, Ref.: B7688), or Dimethyloxalylglycine DMOG at 0.5 mM resuspended in DMSO (Tebu-bio, MO, USA).

[6] = test system: TpMD409 cells; test: Soft agar colony forming assay, TpMD409; type: cell-based, bovine; conditions: colonies counted 10 days after plating
Experimental: as §1, with “HepG2, NIH/3T3 and MEF cells lines were cultured in DMEM (Gibco-BRL, Paisley, UK), supplemented with 10% heat-inactivated Fetal calf serum, 4mM L-Glutamine, 25 mM HEPES, 10µM β-mercaptoethanol and 100µg/ml penicillin/streptomycin in a humidified 5% CO2 atmosphere at 37°C.” left out, “USA).” for “USA). The anti-parasite drug Buparvaquone (BW720c) was used at 200ng/ml for 72 hours. BW720c has no effect on growth of uninfected cells.”
as §2

[7] = test system: FBW7 and c-Jun mRNA in TBL3 cells; test: RT-qPCR of FBW7 and c-Jun mRNA in TBL3 cells; type: cell-based, bovine
Experimental: as §3, §4

[8] = test system: HIF1alpha transcriptional activity; test: HRE-Luciferase reporter assay; type: cell-based, bovine
Experimental: Bovine cells were transfected with the 5xHRE (Staller et al., 2003) or CyclinD1- (Wulf et al., 2001) Luciferase reporters, using electroporation (Neon kit, Invitrogen, CA, USA). Mouse cells were transfected using Lipofectamine 2000 (Invitrogen, CA, USA). Transfections efficiencies were normalized to Renilla activity by co-transfection of a pRL-TK Renilla reporter plasmid (Promega, Ref.: E6241). Luciferase assays were performed 36h post-transfection using the Dual-Luciferase Reporter Assay System (Promega, Ref: E1980) in a microplate luminometer. Relative luminescence was represented as the ratio Firefly/Renilla luminescence, compared with the corresponding empty vector control. The 5xHRE promoter-Luciferase construct was obtained from P Staller (Biotech Research & Innovation Centre, Copenhagen, […]).

| SMILES | parasites in TBL3 cells [1] | viability of parasite-infected cells ([2]; TBL3, 72h, XTT assay) | transformed phenotype, colonies in soft agar [3] | expression of the transcripts encoding glycolytic enzymes [4] | drug-induced decrease in glycolytic enzyme expression on overexpression of the TaPIN A53P mutant ([4]; overexpression of TaPIN A53P) | proliferation of non-parasitized cells [5] | transformed phenotype, colonies in soft agar [6] | mRNA expression [7] | HIF1alpha transcriptional activity [8] | host cell viability ([2]; PiB, infected cell line not given) |
| --- | --- | --- | --- | --- | --- | --- | --- | --- | --- | --- |
| CC(C)(C)C1CCC(CC2=C(O)C(=O)c3ccccc3C2=O)CC1 (centres unmarked) [Buparvaquone, 2-((4-tert-butylcyclohexyl)methyl)-3-hydroxy-1,4-naphthoquinone] | eliminate parasites | decreased the viability | reversed the transformed phenotype | reduced expression | reversed | no effect | reversed the transformed phenotype | no effect | reduced | – |
| CCOC(=O)CN1C(=O)c2ccc3c4c(ccc(c24)C1=O)C(=O)N(CC(=O)OCC)C3=O [PiB, benzo[Imn][3,8]phenanthroline-2,7-diacetic acid, 1,3,6,8-tetrahydro-1,3,6,8-tetraoxo-, diethyl ester] | eliminate parasites | – | reduced | reduced expression | – | no effect | reduced | no effect | reduced | reduced |
